From patent publication US20110124745A1, “Switchable Anionic Surfactants and Methods of Making and Using Same” (priority 2009, published 2011)

What was measured:
Format in all cases: physicochemical
[1] = Switching efficiency by 1H NMR, method B (DMF internal standard); details: relative to DMF standard set to 100
Text: In both methods, to quantify the concentration of surfactant in solution, its ^1H NMR integration was compared to one of two internal standards of known concentration. In addition to the difference in which internal standard was used, the two methods can also be distinguished from each other on the basis of the timing of the addition of the internal standard. In method A, the standard remains in the solution during the process of switching. In method B, the switching is executed first and the DMF solution of known strength and quantity is added in to the solution.
In both methods, the surfactant was turned OFF with CO2 by positioning the needle that supplied the CO2 to the surfactant solution above the solution in such a way that the slow flow of CO2 was allowed to interact with the surfactant solution at the surface. The switching from ON to OFF required 5 min or less. Increasing the surface area, for example, by slightly tilting the vial, expedited the switching from ON to OFF. To turn the surfactant ON, the solution was stirred at 70° C. for 40 min as described above. After each ON cycle, 0.5 mL of D2O was added to the solution to compensate for the loss in the volume caused by evaporation.
The surfactant solution was prepared by combining 0.046 g of octyl 4-hydroxy-3-nitrobenzoate and 0.136 g of Na2CO3 in 16.0 mL of D2O. The resultant solution was homogenized by sonication for 2 min. 1.00 mL of this solution was transferred using a Hamilton syringe into thirteen different vials (1, 2, 2*, 3, 4, 5, 6, 7, 8, 9, 10, 11 and 12). Stirring bars were introduced in vials 2* through 12. […] The surfactant in vial 2 was turned OFF by the procedure described above. The solution in vial 2* was turned OFF with CO2 and was then left stirring uncapped at room temperature for 18 h. All the vials (excluding 2*) were tightly capped and left at room temperature for 18 h to confirm the stability of the systems in both the ON/OFF forms upon standing.
The standard solution of DMF was prepared by mixing 0.005 mL of DMF in 8.0 mL of D2O. […] The ^1H NMR spectra of all solutions were recorded. […]

[2] = pKa of the protonated (neutral) form
[3] = Switching from (1N) to (1A) using exposure to air; details: D2O with Na2CO3, uncapped, stirred at room temperature, 90 min
Description: A solution of anionic surfactant (1A) was prepared by combining octyl 4-hydroxy-3-nitrobenzoate (1N) (0.023 g) and Na2CO3 (0.068 g) in 8.0 mL of D2O. The resultant solution was homogenized by sonication for 2 min. Aliquots (1.00 mL) of this solution were transferred by Hamilton syringe with a least count of 0.005 mL, into three different vials, which were labeled as vials A, B and C. Visual observations were made of vials A, B and C after 0, 30 and 90 min of stirring at room temperature under separate conditions as described below and are presented in FIG. 3A, 3B and 3C, respectively. […] The solution in vial A remained in the ON form (1A) throughout the experiment and it appeared as a yellow homogeneous solution that was free of any solids. A magnetic stir bar was introduced in vials B and C. The surfactant solutions in vials B and C were turned OFF by allowing a stream of CO2 provided by a needle to blow, CO2 at the surface of the solutions (the needle was not allowed to dip or touch the surface of the solution). Vial C was then capped and its cap was supplemented by […]™ to inhibit CO2 leakage. Thus at the beginning of this experiment, which is pictured in FIG. 3A, vial A held a solution in the ON form, and vials B and C held a solution in the OFF form. Vial B was then uncapped and stirred under passive exposure to air. Vial C was stirred under a passive CO2 headgas. […]

| Proton integration at ~7.3 δ ([1]; D2O with Na2CO3, vial 1, control, never switched (ON)) | Proton integration at ~7.3 δ ([1]; vial 2*: turned OFF with CO2, then stirred uncapped at room temperature) | pKa [2] | Proton integration at ~7.3 δ ([1]; filtered solution, vials 2, 4, 6, 8, 10, 12: cycles of Table 1 ending OFF (CO2)) | conversion of OFF form to ON form by passive exposure to air [3] | SMILES |
| --- | --- | --- | --- | --- | --- |
| 46 | 45 | – | – | – | CCCCCCCCOC(=O)c1ccc(O)c([N+](=O)[O-])c1 [compound (1A), 2-nitro-4-(octyloxycarbonyl)phenolate] |
| – | – | ~5.5 | 0 | passive exposure to air is sufficient | CCCCCCCCOC(=O)c1ccc(O)c([N+](=O)[O-])c1 [compound (1N), octyl 4-hydroxy-3-nitrobenzoate] |
